Where a name gives a salt, the structure may show the parent alone.
How the values were obtained:
CGAS = CGAS whole blood cytokine release assay (384-well, BacMam stimulation, IP-10 by cytometric bead array); format: cell-based; conditions: Homo sapiens, 6 h; read-out: hWB pXC50 (converted)
Experimental: Blood collection: Blood was collected in a tube containing 10% Sodium Heparin (5 ml/45 ml blood final).
Protocol for CGAS Whole Blood Cytokine Release Assay: Compounds serial diluted at 1:3 were provided at 150 nL per well, in a 384 well polypropylene microplate (cat. 781280; Greiner Bio-One, Frickenhausen, Germany). 5 μL of PBS/20% Null BacMam was dispensed to all wells except for column 18 on a Multidrop Combi (Thermo Scientific, Waltham, MA). 5 uL of PBS was dispensed into column 18. The Bravo (Agilent, Santa Clara, CA) was used to transfer 45 uL of donor derived blood into the compound plates. The Bravo protocol mixed the blood and compound/PBS 5 times. The plates were incubated at 37° C., 5% CO2, for 6 hours. At the 6 hour mark the plates were removed and centrifuged for 10 minutes at 3000 RPM. 3 uL of supernatant was transferred from the plate to a 384 well NBS microplate (cat. 4513; Corning Life Sciences, Corning, NY). These plates were sealed with adhesive foil and stored in a −80 freezer until ready for analysis.
For cytokine detection, Human IP-10 BD cytometric bead array (CBA) beads (BD Biosciences, Franklin Lakes, NJ) were used. Capture bead solution was prepared by performing a 1:50 dilution of the IP-10 capture bead stock solution in BD diluent for serum/plasma (cat. 51-9003991 BD Biosciences, Franklin Lakes, NJ). 2 μL of this solution was added per well to the assay microplates which were then sealed with adhesive foil and incubated at room temperature for 2 h in the dark. Detection reagent was further prepared by performing a 1:50 dilution of the detection reagent stock solution. 2 μL of detection reagent was added per well and microplates were sealed with adhesive foil and incubated at room temperature in the dark for 1 h. After the 1 h incubation 3 uL of BD CBA wash buffer was added per well of the microplates. Data were acquired on an iQue Screener flow cytometer. The iQue used fluorescence detection to quantify the inhibition of IP-10 present in the sample wells. A sip time of 1 second per sample was used. The blue laser with excitation of 488 nm and emission filters 585/40 nm were used to capture the mean and median of IP-10 with the detector in logarithmic mode (FL2-H).
All data analysis was carried out in IDBS ActivityBase XE.

human CGAS (157-522) = human CGAS (157-522) (Homo sapiens, UniProt Q8N884); test: biochemical;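 further: biochemical enzyme reaction, 2′3′-cGAMP product measured by RapidFire mass spectrometry (MRM) normalised to c-di-UMP internal standard, inhibition of product formation relative to high and low control wells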
human CGAS (157-522), sequence (Q8N884 157-522): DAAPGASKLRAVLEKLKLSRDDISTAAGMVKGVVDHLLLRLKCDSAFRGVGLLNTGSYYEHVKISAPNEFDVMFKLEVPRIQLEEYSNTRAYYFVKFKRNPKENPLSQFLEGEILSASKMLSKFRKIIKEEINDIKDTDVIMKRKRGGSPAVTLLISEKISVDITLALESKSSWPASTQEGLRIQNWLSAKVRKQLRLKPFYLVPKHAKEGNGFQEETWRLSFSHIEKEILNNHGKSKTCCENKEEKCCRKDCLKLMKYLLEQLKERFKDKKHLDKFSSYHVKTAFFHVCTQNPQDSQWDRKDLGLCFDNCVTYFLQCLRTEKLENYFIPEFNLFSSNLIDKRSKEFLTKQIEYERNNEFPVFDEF

Compound | IC50 (CGAS) [nM] | IC50 (human CGAS (157-522)) [nM]
FC(F)(F)c1n[nH]c(-c2nc3nc4c(cn3c2-c2cnc[nH]2)CCC4)n1 [Example 133, 12-(1H-imidazol-5-yl)-11-[3-(trifluoromethyl)-1H-1,2,4-triazol-5-yl]-1,8,10-triazatricyclo[7.3.0.0^3,^7]dodeca-2,7,9,11-tetraene] | 200 | 3.16
COCc1cnc2nc(-c3nc(C(F)(F)F)n[nH]3)c(-c3cnc[nH]3)n2c1 [Example 69, 5-[3-(1H-imidazol-5-yl)-6-(methoxymethyl)imidazo[1,2-a]pyrimidin-2-yl]-3-(trifluoromethyl)-1H-1,2,4-triazole] | 126 | 2.51
CC(=O)N1Cc2cn3c(-c4cnc[nH]4)c(-c4nc(C(F)(F)F)n[nH]4)nc3nc2C(F)(F)C1 [Example 87, 1-[13,13-difluoro-6-(1H-imidazol-5-yl)-5-[3-(trifluoromethyl)-1H-1,2,4-triazol-5-yl]-2,4,7,11-tetraazatricyclo[7.4.0.0^3,^7]trideca-1,3,5,8-tetraen-11-yl]ethan-1-one] | > 31600 | 2000
FC(F)(F)c1n[nH]c(-c2nc3nc4c(cn3c2-c2cn[nH]c2)COCC4)n1 [Example 72, 6-(1H-pyrazol-4-yl)-5-[3-(trifluoromethyl)-1H-1,2,4-triazol-5-yl]-11-oxa-2,4,7-triazatricyclo[7.4.0.0^3,^7]trideca-1,3,5,8-tetraene] | 15800 | 12.6
Fc1cnc2nc(-c3nc(C(F)F)n[nH]3)c(-c3c[nH]cn3)n2c1 [Example 5, 3-(difluoromethyl)-5-[6-fluoro-3-(1H-imidazol-4-yl)imidazo[1,2-a]pyrimidin-2-yl]-1H-1,2,4-triazole] | 200 | 2.51
CC(C)c1ccn2c(-c3cnc[nH]3)c(-c3nc(C(F)(F)F)n[nH]3)nc2n1 [Example 55, 5-[3-(1H-imidazol-5-yl)-7-(propan-2-yl)imidazo[1,2-a]pyrimidin-2-yl]-3-(trifluoromethyl)-1H-1,2,4-triazole] | 1000 | 7.94
OCC(F)(F)c1ccn2c(-c3cnc[nH]3)c(-c3nc(C(F)(F)F)n[nH]3)nc2n1 [Example 6, 2,2-difluoro-2-[3-(1H-imidazol-5-yl)-2-[3-(trifluoromethyl)-1H-1,2,4-triazol-5-yl]imidazo[1,2-a]pyrimidin-7-yl]ethan-1-ol] | 501 | 3.98
FC(F)(F)COCc1cnc2nc(-c3nc(C(F)(F)F)n[nH]3)c(-c3cnc[nH]3)n2c1 [Example 111, 5-[3-(1H-imidazol-5-yl)-6-[(2,2,2-trifluoroethoxy)methyl]imidazo[1,2-a]pyrimidin-2-yl]-3-(trifluoromethyl)-1H-1,2,4-triazole] | 398 | 3.98
FC(F)(F)c1n[nH]c(-c2nc3ncc(COCCCC4CCCO4)cn3c2-c2cnc[nH]2)n1 (stereo not drawn) [Example 140, 5-[3-(1H-imidazol-5-yl)-6-{[3-(oxolan-2-yl)propoxy]methyl}imidazo[1,2-a]pyrimidin-2-yl]-3-(trifluoromethyl)-1H-1,2,4-triazole] | 794 | 12.6
CCOc1cnc2nc(-c3nc(C(F)(F)F)n[nH]3)c(-c3cnc[nH]3)n2c1 [Example 163, 5-[6-ethoxy-3-(1H-imidazol-5-yl)imidazo[1,2-a]pyrimidin-2-yl]-3-(trifluoromethyl)-1H-1,2,4-triazole] | 794 | 10
Fc1cnc2nc(-c3nc(C(F)(F)F)n[nH]3)c(-c3cn[nH]c3)n2c1 [Example 38, 5-[6-fluoro-3-(1H-pyrazol-4-yl)imidazo[1,2-a]pyrimidin-2-yl]-3-(trifluoromethyl)-1H-1,2,4-triazole] | 1000 | 7.94
FC(F)(F)c1n[nH]c(-c2nc3nc4c(cn3c2-c2cnc[nH]2)CNCC4)n1 [Example 74, 6-(1H-imidazol-5-yl)-5-[3-(trifluoromethyl)-1H-1,2,4-triazol-5-yl]-2,4,7,11-tetraazatricyclo[7.4.0.0^3,^7]trideca-1,3,5,8-tetraene] | 1260 | 7.94
CC(C)(C)C(=O)n1cnc(-c2c(-c3nc(C(F)(F)F)n[nH]3)nc3ncccn23)c1 [Example 81, 2,2-dimethyl-1-(4-{2-[3-(trifluoromethyl)-1H-1,2,4-triazol-5-yl]imidazo[1,2-a]pyrimidin-3-yl}-1H-imidazol-1-yl)propan-1-one] | 158 | 3.98
FC(F)(F)c1n[nH]c(-c2nc3ncc(C4CCCO4)cn3c2-c2cnc[nH]2)n1 (stereo not drawn) [Example 82, 5-[3-(1H-imidazol-5-yl)-6-(oxolan-2-yl)imidazo[1,2-a]pyrimidin-2-yl]-3-(trifluoromethyl)-1H-1,2,4-triazole] | 200 | 5.01
FC(F)(F)c1n[nH]c(-c2nc3nc4c(cn3c2-c2cnc[nH]2)CSCC4)n1 [Example 103, 6-(1H-imidazol-5-yl)-5-[3-(trifluoromethyl)-1H-1,2,4-triazol-5-yl]-11-thia-2,4,7-triazatricyclo[7.4.0.03,7]trideca-1,3,5,8-tetraene] | 251 | 1.26
FC(F)(F)c1n[nH]c(-c2nc3nc4c(cn3c2-c2c[nH]cn2)COC4)n1 [Example 10, 12-(1H-imidazol-4-yl)-11-[3-(trifluoromethyl)-1H-1,2,4-triazol-5-yl]-5-oxa-1,8,10-triazatricyclo[7.3.0.0^3, ^7] dodeca-2,7,9,11-tetraene, 0.2 trifluoroacetic acid salt] | 126 | 6.31
COCc1cn2c(-c3cnc[nH]3)c(-c3nc(C(F)F)n[nH]3)nc2nc1C(F)(F)F [Example 121, 3-(difluoromethyl)-5-[3-(1H-imidazol-5-yl)-6-(methoxymethyl)-7-(trifluoromethyl)imidazo[1,2-a]pyrimidin-2-yl]-1H-1,2,4-triazole] | 1580 | 7.94
COCc1cnc2nc(-c3nc(C(F)F)n[nH]3)c(-c3cnc[nH]3)n2c1 [Example 86, 3-(difluoromethyl)-5-[3-(1H-imidazol-5-yl)-6-(methoxymethyl)imidazo[1,2-a]pyrimidin-2-yl]-1H-1,2,4-triazole] | 50.1 | 3.98
COC(C)c1cnc2nc(-c3nc(C(F)(F)F)n[nH]3)c(-c3c[nH]cn3)n2c1 (stereo not drawn) [Example 165, 5-[3-(1H-imidazol-4-yl)-6-(1-methoxyethyl)imidazo[1,2-a]pyrimidin-2-yl]-3-(trifluoromethyl)-1H-1,2,4-triazole] | 200 | 6.31
FC(F)(F)c1n[nH]c(-c2nc3nc4c(cn3c2-c2cnc[nH]2)CNC4)n1 [Example 63, 12-(1H-imidazol-5-yl)-11-[3-(trifluoromethyl)-1H-1,2,4-triazol-5-yl]-1,5,8,10-tetraazatricyclo[7.3.0.0^3,^7]dodeca-2,7,9,11-tetraene] | 794 | 6.31
FC(F)(F)c1n[nH]c(-c2nc3ncc(CC4CCCCC4)cn3c2-c2cnc[nH]2)n1 [Example 15, 5-[6-(cyclohexylmethyl)-3-(1H-imidazol-5-yl)imidazo[1,2-a]pyrimidin-2-yl]-3-(trifluoromethyl)-1H-1,2,4-triazole, trifluoroacetic acid salt] | > 31600 | 10

Reference: patent US12247033B2, “Triazole-substituted imidazo[1,2-a]pyrimidines as cGAS inhibitors” (GlaxoSmithKline Intellectual Property Development Limited, priority 2022, dated 2025)
